Several values for one entry are separate records, joined by “and”; a condition that tells them apart may be missing. Equal entries are not always repeated. Where two headings read alike, the source gives them in different places. Peptide text beside a SMILES is read from it.
Tests used:
α-2 antiplasmin = assay: Antiplasmin assay (plasmin cleavage of S2251) in rabbit plasma during clot lysis experiments; assay type: in vivo
Protocol: Antiplasmin levels were monitored by the antiplasmin assay (Helena Labs, Beaumont, Tex.). This assay measures inhibition of plasmin cleavage of a chromogenic substrate S2251 (H-D Valyl-Leucyl-L-Lysine-p-nitroanilide dihydrochloride) obtained from Helena Labs. A typical reaction mixture contains 215 μL of 50 mM Tris buffer pH 7.4, 110 mM NaCl, 5 μL rabbit plasma, 15 μL plasmin (1 unit), and 15 μL of substrate S2251 (3.5 mM stock) in a total reaction volume of 250 μL. The generation of p-nitroaniline product is monitored at […].

tPA antigen = tPA antigen ELISA in rabbit plasma during clot lysis experiments; assay type: in vivo; settings: with tPA
Protocol: Samples of rabbit plasma were assayed by a commercial ELISA assay from American Diagnostic Inc. (ADI), New York, N.Y. Several modifications are made to the ADI protocol, which include using 10 μL of untreated plasma sample to minimize background and spiking the standard curve with 10 μL rabbit plasma to equalize any salt effect that might result. The assay was standardized with mouse C127 cell tPA (Invitron, St. Louis, Mo.).
The tPA antigen levels were monitored hourly to determine if the increase in clot lysis is due to an extended tPA half-life. […] Antigen levels of tPA decreased after infusion is stopped, indicating normal clearance of the exogenous tPA.

fibrinogen [1] = settings: rabbit, in vivo
Protocol: (§1) Fibrinogen concentration in dilute plasma is inversely proportional to the thrombin clotting of the plasma (S. Borgstrom, Acta Chir. Scand. 90:419 (1945); A. Clauss, Acta Haemat, 17:273 (1957); K. Jacobson, Scand. J. Clin. Lab. Med. 7:7 (1955). Plasma was diluted 1:10 and 200 μL of this solution added to 100 μL (10 units) of bovine thrombin. Clotting time was measured on a clinical fibrometer, and fibrinogen levels determined as mg/dL plasma.

[2] = tested on: jugular vein clot (tPA mediated clot lysis); assay: Rabbit jugular vein thrombolysis model II: peptide coinfused with tPA; assay type: in vivo, rabbit (New Zealand White); settings: tPA alone 0.125 mg/kg; standard curve 2 conditions (17% background lysis)
Protocol: In a second experiment the enhancer peptide was administered with tPA. […] Clot lysis standard curves were performed for varying doses of tPA from […] mouse cells (Invitron). […] To compare the data, standard curves were established for each procedure. A linear dose dependency is observed with both sets of data. […] The chosen dose of tPA (0.125 mg/kg) for the peptide experiments gave 17% and 27% lysis, respectively, for the two sets of experiments. This dose was chosen as the baseline for the peptide study so that an increase in clot lysis would be observable. Increases in clot lysis were evaluated by two methods. In the first method, fold increases in % clot lysis were calculated as follows: [formula] In the second method, the equivalent dose of tPA necessary to obtain the clot lysis observed with tPA and peptide was extrapolated from the appropriate standard curve. Fold increase in tPA dose was determined as follows: [formula] A dose response study was performed with the peptides using a constant tPA dose (FIG. 5). Three doses are tested: 1.85 mg/kg, 0.185 mg/kg and 0.0185 mg/kg, which correspond to molar ratios of peptide to tPA of 385, 38.5, and 3.85, respectively with weight ratios of enhancer peptide to tPA of 15:1, 1.5:1, and 0.15:1 respectively. […]

[3] = tested on: isolated clot in the rabbit jugular vein (tPA mediated clot lysis); assay: Rabbit jugular vein thrombolysis model I: peptide added during clot formation, then tPA infusion; assay type: in vivo, rabbit (New Zealand White); settings: tPA alone 0.125 mg/kg infused over 4 h; standard curve 1 conditions
Protocol: Two independent studies were performed using the rabbit jugular vein thrombolysis model described in D. Collen et al., J. Clin. Invest. 71:368 (1983), with minor modifications. The enhancer peptide was administered during clot formation prior to tPA administration in one set of experiments with the rabbit jugular vein thrombolysis model. The enhancer peptide produced a five-fold increase in the clot lysis obtained from infusion of 0.125 mg tPA/kg, which corresponds to the lysis observed by a six-fold increase in tPA dose.
Clot lysis standard curves were performed for varying doses of tPA from C127 mouse cells (Invitron). […] To compare the data, standard curves were established for each procedure. A linear dose dependency is observed with both sets of data. […] Increases in clot lysis were evaluated by two methods. In the first method, fold increases in % clot lysis were calculated as follows: [formula] […] Fold increase in tPA dose was determined as follows: [formula] […]
An isolated clot was formed in the rabbit jugular vein using bovine thrombin (Calbiochem, San Diego, Calif.) and ^125 I fibrinogen (Amersham, Arlington Heights, Ill.). […] Blood samples were taken every hour from the femoral vein, and clot lysis was measured by comparison of residual radioactivity in the clot at the end of 4 1/2 hours. […]

fibrinogen [4] = assay: Fibrinogen level in rabbit plasma by thrombin clotting time during clot lysis experiments; settings: enhancer peptide dose 0 mg/kg (tPA only)
Protocol: as §1

With `CC[C@H](C)[C@H](NC(=O)[C@H](Cc1ccccc1)NC(=O)[C@@H](NC(=O)[C@H](CC(C)C)NC(=O)[C@H](Cc1ccccc1)NC(=O)[C@@H]1CCCN1C(=O)[C@H](CCCNC(=N)N)NC(=O)[C@H](CC(N)=O)NC(=O)[C@H](C)NC(=O)[C@H](CCCCN)NC(=O)[C@H](Cc1ccccc1)NC(=O)[C@@H](NC(=O)[C@@H](NC(=O)[C@H](CCCNC(=N)N)NC(=O)[C@H](CC(N)=O)NC(=O)[C@@H]1CCCN1C(=O)[C@H](CC(N)=O)NC(=O)[C@H](CC(C)C)NC(=O)[C@H](CO)NC(=O)[C@H](CCCNC(=N)N)NC(=O)CNC(=O)[C@H](C)N)C(C)C)[C@@H](C)O)C(C)C)C(=O)O` [enhancer peptide] (H-AGRSLNPNRVTFKANRPFLVFI-OH) the α-2 antiplasmin levels (α-2 antiplasmin; all rabbit experiments, including those with increased clot lysis from enhancer peptide) was “did not change”, the “α-2 Antiplasmin (% of baseline)” value (α-2 antiplasmin; enhancer peptide dose 0.0185 mg/kg, with tPA) was 87 +/- 7 % of baseline and the “α-2 Antiplasmin (% of baseline)” value (α-2 antiplasmin; enhancer peptide dose 0.185 mg/kg, with tPA) was 96 +/- 1 % of baseline. The “α-2 Antiplasmin (% of baseline)” value (α-2 antiplasmin; enhancer peptide dose 1.85 mg/kg, with tPA) was 86 +/- 8 % of baseline, the “α-2 Antiplasmin (% of baseline)” value (α-2 antiplasmin; enhancer peptide dose 9.25 mg/kg, with tPA) was 92 +/- 2 % of baseline and the “tPA Antigen 30 min. after Infusion” value (tPA antigen; enhancer peptide dose 0.0185 mg/kg) was 0 mg/mL. The “tPA Antigen 30 min. after Infusion” value (tPA antigen; enhancer peptide dose 0.185 mg/kg) was 0 mg/mL, the Fibrinogen levels (fibrinogen [1]) was “did not change” and the “Fibrinogen (% of baseline)” value (fibrinogen [1]; 0.0185 mg/kg) was 100 % of baseline. For the same compound, the “Fibrinogen (% of baseline)” value (fibrinogen [1]; 0.185 mg/kg) was 100 +/- 1 % of baseline, the “Fibrinogen (% of baseline)” value (fibrinogen [1]; 1.85 mg/kg) was 100 +/- 1 % of baseline and the “Fibrinogen (% of baseline)” value (fibrinogen [1]; 9.25 mg/kg) was 91 % of baseline. The “Fibrinogen (% of baseline)” value (fibrinogen [1]; 18.5 mg/kg) was 91 +/- 13 % of baseline.

“tPA: tissue plasminogen activator from C127 mouse cells (Invitron Lot #76-001-31395), control tPA for this study” was tested, and the clot lysis [2] was 27%, the clot lysis [3] was 17% and 16 +/- 1% and the “α-2 Antiplasmin (% of baseline)” value (α-2 antiplasmin; enhancer peptide dose 0 mg/kg (tPA only)) was 94 +/- 2 % of baseline. For the same compound, the “Fibrinogen (% of baseline)” value (fibrinogen [4]) was 100 % of baseline.

From patent US5591431A, “Enhancement of clot lysis” (G.D. Searle & Co., priority 1990, dated 1997)
